# Results published in patent publication US20090054510A1, “METHOD FOR IDENTIFYING COMPOUNDS FOR THE TREATMENT OF DEPRESSION” (H. LUNDBECK A/S, priority 2006, published 2009).
# Tests used:
# [1] = test system: extracellular serotonin in the ventral hippocampus; test: Microdialysis in rats, single administration ± (R)-citalopram; format: in vivo, rat; settings: FIG. 3
# Protocol: (§1) Male Sprague-Dawley rats, initially weighing 275-300 g, are used
# (§2) Rats are anaesthetised with hypnorm/dormicum (2 ml/kg) and intracerebral guide cannulas (CMA/12) are stereotaxically implanted into the hippocampus, aiming to position the dialysis probe tip in the ventral hippocampus (co-ordinates: 5.6 mm posterior to bregma, lateral −5.0 mm, 7.0 mm ventral to dura or in the frontal cortex (co-ordinates: 3.2 mm anterior to bregma; lateral, 0.8 mm; 4.0 mm ventral to dura). Anchor screws and acrylic cement are used for fixation of the guide cannulas. The body temperature of the animals is monitored by rectal probe and maintained at 37° C. The rats are allowed to recover from surgery for 2 days, housed singly in cages. On the day of the experiment, a microdialysis probe (CMA/12, 0.5 mm diameter, 3 mm length) is inserted through the guide cannula.
# (§3) The probes are connected via a dual channel swivel to a microinjection pump. Perfusion of the microdialysis probe with filtered Ringer solution ([…], 3 mM KCl, 1 mM MgCl2, 1.2 mM CaCl2) is begun shortly before insertion of the probe into the brain and continued for the duration of the experiment at a constant flow rate of 1 μL/min. After 180 min of stabilisation, the experiments are initiated. Dialysates were collected every 20 min. […]
# (§4) Concentration of 5-HT in the dialysates is analysed by means of HPLC with electrochemical detection. […]
# [2] = test system: extra cellular serotonin levels (ventral hippocampus); test: 3-day microdialysis in rats (minipumps); format: in vivo, rat; settings: 4 mg/kg vs 10 mg/kg (S)-citalopram, oxalate salts, FIG. 4
# Protocol: as §1, §2, §3, §4
# hSERT [3] = molecular target: T1, hSERT (Homo sapiens, UniProt P31645); test: [3H]-(S)-citalopram dissociation from SERT (allosteric site binding)
# T1 construct: expressed in transfected cells; host or cells: HEK293 cells expressing hSERT; membranes
# T1 sequence (P31645 whole entry): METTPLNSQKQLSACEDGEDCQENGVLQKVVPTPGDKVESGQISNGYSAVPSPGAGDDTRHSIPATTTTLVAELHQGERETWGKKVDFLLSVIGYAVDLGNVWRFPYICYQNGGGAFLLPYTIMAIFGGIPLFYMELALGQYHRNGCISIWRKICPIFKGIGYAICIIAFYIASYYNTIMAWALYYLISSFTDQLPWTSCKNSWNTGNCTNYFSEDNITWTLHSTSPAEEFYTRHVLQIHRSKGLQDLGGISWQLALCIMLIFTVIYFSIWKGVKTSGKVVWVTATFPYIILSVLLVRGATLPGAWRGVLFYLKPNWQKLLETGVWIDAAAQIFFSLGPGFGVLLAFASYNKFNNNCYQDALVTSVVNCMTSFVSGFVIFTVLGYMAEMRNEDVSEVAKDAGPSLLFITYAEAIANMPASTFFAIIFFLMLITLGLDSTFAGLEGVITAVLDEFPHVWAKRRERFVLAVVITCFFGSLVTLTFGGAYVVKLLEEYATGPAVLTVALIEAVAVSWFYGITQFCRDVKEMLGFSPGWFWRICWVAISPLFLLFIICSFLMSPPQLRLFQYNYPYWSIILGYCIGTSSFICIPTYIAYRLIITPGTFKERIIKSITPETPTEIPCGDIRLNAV
# Protocol: The assay procedure was modified based on the methods described in Pharmacol. Toxicol., 80, 197-201, 1997 and J.Neurochem., 92, 21-28, 2005.
# PeakRapid 293 cells (Edge Biosystems, Gaithersburg, Md.) were cultured in Dulbecco's Modified Eagle Medium (DMEM) supplemented with 10% bovine calf serum, 4 mM L-glutamine, 100 units/ml penicillin and 100 μg/ml streptomycin) at 37° C., 5% CO2. Human SERT cDNA in a mammalian expression vector was transiently transfected into PeakRapid 293 cells using 10 μg total DNA in 150 cm2 flasks by lipofectamine method (Invitrogen, Carlsbad, Calif.). Two days after transfection, membranes were harvested.
# Binding assays were conducted in buffer containing 50 mM Tris, 120 mM NaCl, and 5 mM KCl, PH 7.4. Prior to dissociation binding, [3H]-(S)-citalopram (40 nM) was incubated with hSERT membranes (5 ug/10 ul) for 2 hours at room temperature. The reaction mixture was dispensed into 96 well format minitubes at 10 ul/well and kept on ice. […] Bound ligand was counted using a Trilux counter.
# Dissociation binding data were analyzed using GraphPad Prism 4 (GraphPad, San Diego, Calif.) and Xlfit 4 (IDBS, Guildford, Surrey, UK). […] The ratios (k/k0) of the rate (k) in the presence compounds over the rate (k0) in the absence of compounds were calculated for each compound concentration. […]
# hSERT [4] = molecular target: T1, hSERT; format: binding; settings: increasing concentrations of (R)-citalopram; FIG. 2
# Protocol: Association rates are determined on membrane preparations from HEK293 cells transiently expressing hSERT. The kinetics of the association of the [^3H]compound- SERT complex is determined after incubation of aliquots consisting of 10 μg membranes from HEK293 cells transiently expressing hSERT and 290 μL [^3H]test compound pre incubated until equilibrium. Association is initiated by addition of radioligand in the absence or presence of R-citalopram (0-300 μM). Bound [^3H]test compound is measured after 0, 2, 5, 10, 15, 20, 30, 50, 70 and 90 minutes.
# HEK293 cells expressing hSERT are harvested and 10 μg HEK293-hSERT membrane is placed in each well in a 96 well microtiter plate. […] Concentration of test-compounds is varied from the nM to the μM range. Incubation-time is 0, 2, 5, 10, 15, 20, 30, 50, 70 and 90 minutes on ice or at room temperature (22° C.). Mebranes are harvested in ice-cold ELGA-water onto a GF/C fiberglass filter (Presoaked with 0.5% PEI for 30 min). Filters are rinsed twice with 2×0.5 ml ice-cold ELGA-water. The filters are dried and added 40 L of scintillation fluid.
structure (smiles),measurement,setting,value
CNCc1ccccc1Sc1c[nH]c2cc(F)ccc12 [[2-(6-Fluoro-1H-indol-3-ylsulfanyl)-benzyl]-methyl-amine],extracellular serotonin in the ventral hippocampus,[1],significant increase
same,effect of concomitant (R)-citalopram on the increase in extracellular serotonin,[1]; ventral hippocampus,not affected by concomitant administration of (R)-citalopram
same,increase in serotonin levels compared with (S)-citalopram,[2],faster and more pronounced increase in the serotonin levels than (S)-citalopram
same,slowing of 3H (S)-citalopram dissociation rate (fold modulation),hSERT [3]; at 200 μM,5.4 fold
same,IC50,"hSERT [3]; hSERT membranes, [3H]-(S)-citalopram 40 nM, room temperature, N=2, read-out: IC50 of binding to an allosteric site (from k/k0 of 3H-(S)-citalopram dissociation)",26 µM
same,effect of (R)-citalopram on association of the [3H] ligand to SERT,hSERT [4],almost unaffected by (R)-citalopram
